This note sets out measurements from patent US4835253A, “Specific inhibitors of tissue kallikrein” (The University Hospital, priority 1987, dated 1989).

Values joined by “and” are separate entries in the source; they are usually repeats but may differ in a detail not shown here. Identical values can stand only once. Non-standard residues stand in square brackets, D forms with d. Residues, ends and D or L forms follow the SMILES beside them. *: point of attachment. Cha = N[C@@H](CC1CCCCC1)C(=O)O; dChg = N[C@@H](C(=O)O)C1CCCCC1; dPhg = N[C@@H](C(=O)O)c1ccccc1; pNA = O=[N+]([O-])c1ccc(N*)cc1; Chg = N[C@H](C(=O)O)C1CCCCC1 Bounds are passed on as bounds.

T1 sequence (P06870 25-262): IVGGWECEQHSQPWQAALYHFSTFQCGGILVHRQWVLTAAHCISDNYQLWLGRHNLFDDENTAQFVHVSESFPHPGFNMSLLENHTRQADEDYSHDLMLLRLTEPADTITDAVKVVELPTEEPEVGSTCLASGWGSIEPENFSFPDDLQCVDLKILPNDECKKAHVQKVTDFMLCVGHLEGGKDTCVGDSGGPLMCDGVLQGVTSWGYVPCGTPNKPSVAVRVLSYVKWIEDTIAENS

One assay addresses T1, Human urinary kallikrein (Homo sapiens, UniProt P06870).
T1 construct: Human urinary kallikrein (hereinafter "HUK") was highly purified using a modification of published methods; from tissue; host or cells: human urine
Put plainly: IC50 of tripeptide 4-nitroanilides against HUK cleavage of S-2266. Type of assay: biochemical. The conditions noted are these: S-2266, 4.0 ng HUK, 37 C, pH 9.0. From the text:
An evaluation of other possible peptide sequences and their potential effect as substrate analogue inhibitors specifically of tissue kallikrein was undertaken using chromogenic substrates comprising alternate series of tripeptide 4-nitroanilides using previously described methods [Amundsen et al., "Methods For The Determination Of Glandular Kallikrein By Means Of A Chromogenic Tripeptide Substrate," in Kinins-II. Part A. Plenum Press, 1979, pages 83-95]. This methodology relies on the capacity of HUK to cleave p-nitroaniline from specifically synthesized tripeptide 4-nitroanilines. Controls for this experimental series included S-2266 comprising D-Val-Leu-Arg-4NA; S-2444 comprising D-Glu-Gly-Arg-4NA; and S-2302 comprising D-Pro-Phe-Arg-4NA respectively. The 50% inhibitory concentration (IC50) values for each synthesized tripeptide 4-nitroanilide was determined at 37 C. at pH 9.0 using the specific kallikrein substrates S-2266 (Kabi, Helena Laboratories, Beaumont, Tex.). 4.0 nanograms (hereinafter "ng") of HUK were used in each sample. Blanks lacking S-2266 were run in parallel to correct for hydrolysis of all samples. In all cases, the amount of 4-nitroaniline generated from each tripeptide was less than 10% of that observed for the hydrolysis of S-2266.
For `N=C(N)NCCC[C@H](NC(=O)[C@H](CC1CCCCC1)NC(=O)[C@@H](N)C1CCCCC1)C(=O)Nc1ccc([N+](=O)[O-])cc1` [L-Chg--Cha--Arg--4NA] (H-[Chg]-[Cha]-Arg-pNA), the IC50 was 11.5 µM.
The compound `N=C(N)NCCC[C@H](NC(=O)[C@H](Cc1ccccc1)NC(=O)[C@H](N)C1CCCCC1)C(=O)Nc1ccc([N+](=O)[O-])cc1` [D-Chg--Phe--Arg--4NA] (H-[dChg]-Phe-Arg-pNA) showed a concentration for half-maximal inhibition (IC50) of 3.7 µM.
The same measure, in the same setting: the same measure for `NCCCC[C@H](NC(=O)[C@H](CC1CCCCC1)NC(=O)[C@H](N)c1ccccc1)C(=O)Nc1ccc([N+](=O)[O-])cc1` [D-0Gly--Cha--Lys--4NA] (H-[dPhg]-[Cha]-Lys-pNA): more than 200 µM; for `CC[C@H](C)[C@H](N)C(=O)N[C@@H](CC1CCCCC1)C(=O)N[C@@H](CCCNC(=N)N)C(=O)Nc1ccc([N+](=O)[O-])cc1` [L-Ile--Cha--Arg--4NA] (H-Ile-[Cha]-Arg-pNA): 10.5 µM; for `CC(C)C[C@H](NC(=O)[C@@H](N)C1CCCCC1)C(=O)N[C@@H](CCCNC(=N)N)C(=O)Nc1ccc([N+](=O)[O-])cc1` [L-Chg--Leu--Arg--4NA] (H-[Chg]-Leu-Arg-pNA): 18.7 µM.
Still for that read-out and setting: to `NCCCC[C@H](NC(=O)[C@H](CC1CCCCC1)NC(=O)[C@H](N)C1CCCCC1)C(=O)Nc1ccc([N+](=O)[O-])cc1` [D-Chg--Cha--Lys--4NA] (H-[dChg]-[Cha]-Lys-pNA) belongs 150 µM; to `N=C(N)NCCC[C@H](NC(=O)[C@H](CC1CCCCC1)NC(=O)[C@H](N)c1ccccc1)C(=O)Nc1ccc([N+](=O)[O-])cc1` [D-0Gly--Cha--Arg--4NA] (H-[dPhg]-[Cha]-Arg-pNA), 7.4 µM.

For a further assay, the target named is T1, Human urinary kallikrein. Put plainly: KI determination: inhibition of HUK cleavage of chromogenic substrate S-2266. The conditions noted are these: HUK, substrate S-2266, pH 9.0, 37 C; read-out: KI. Type of assay: biochemical. As to the method:
(§1) Human urinary kallikrein (hereinafter "HUK") was highly purified using a modification of published methods that employ ultrafiltration, aprotinin-CH-sepharose affinity chromatography, and Sephadex G-100 gel filtration [ole-MoiYoi et al., Proc. Natl. Acad. Sci. USA 76: 3121-3125 (1979)]. […] The pH of each fraction was determined immediately upon elution, and the fraction was neutralized by addition of 2.0 ml of 2M Tris-HCL buffer (pH 8.0).
KI Determinations: KI measurements were performed using a HP8450A diode array spectrophotometer (Hewlett Packard; Palo Alto, Calif.) attached to a Model 216 computer using the multi-component assay program modified to allow simultaneous determination of reaction velocity in four samples. Dixon plots were used to data reduction and for calculation of […]. […] Inhibition of biologically active kinin from LMW-kininogen was done at pH 7.7 and 37 C.
Procedurally, the KI values for the preliminary analogue inhibitors reported previously [Okunishi et al., Hypertension 7 (Suppl. I): I-72-I-75 (1985)] were determined by adding the chromogenic substrate S-2266 comprising D-Val-Leu-Arg-4-nitroaniline to a mixture of the analogue inhibitor and the HUK.
Initially, the inhibitor constant (KI) for each of these novel inhibitor compositions was determined using purified HUK and the tripeptide nitroanilide, S-2266. The ability to inhibit hydrolysis of the S-2266 substrate was performed in 50 mM tris-HCL buffer (pH 9.0) at 37 C. Subsequently, the ability of these novel inhibitors to inhibit human plasma kallikrein and bovine pancreatic trypsin were similarly examined using the specific substrates H-D-Pro-Phe-Arg-p-nitroanilide (S-2302) and Glu-Gly-Arg-p-nitroanilide (S-2444) respectively. The degradation products of each series was purified by HPLC and quantified by liquid scintillation counting as previously described.
Regarding `CC(=O)N[C@@H](Cc1ccccc1)C(=O)N[C@@H](CCCN=C(N)N)C(=O)N[C@@H](CO)C(=O)N[C@H](C(=O)N[C@@H](CCC(N)=O)C(N)=O)C(C)C` [KKI-4, Ac--Phe--Arg--Ser--Val--Gln--NH2, reference compound] (Ac-FRSVQ-NH2), the Ki was found to be 35 µM.
Turning to `CC(=O)N1CCC[C@H]1C(=O)N[C@@H](Cc1ccccc1)C(=O)N[C@@H](CCCNC(=N)N)C(=O)N[C@@H](CO)C(=O)N[C@H](C(=O)N[C@@H](CCC(N)=O)C(N)=O)C(C)C` [KKI-5, Ac--Pro--Phe--Arg--Ser--Val--Gln--NH2, reference compound] (Ac-PFRSVQ-NH2), the Ki is 156 µM and 136 µM.
Still for that read-out and setting: to `CC(=O)N[C@@H](CO)C(=O)N1CCC[C@H]1C(=O)N[C@@H](Cc1ccccc1)C(=O)N[C@@H](CCCNC(=N)N)C(=O)N[C@@H](CO)C(=O)N[C@H](C(=O)N[C@@H](CCC(N)=O)C(N)=O)C(C)C` [KKI-6, Ac--Ser--Pro--Phe--Arg--Ser--Val--Gln--NH2, reference compound] (Ac-SPFRSVQ-NH2) belongs 73 µM.

The next assay has as its target T1, Human urinary kallikrein. Put plainly: KM determination: hydrolysis of substrate analogues by HUK (HPLC, scintillation counting). Type of assay: biochemical. The note with it: hydrolysis by HUK; kininogen = 1.0. The method, then: as §1
KM Determination: Hydrolysis of the substrate analogue inhibitors by HUK was measured by combining the test inhibitor at different concentrations on either side of the KM value with the enzyme at pH 9.0 for thirty minutes at 37 C. The cleavage products were separated from the starting material in the digest by HPLC on a Beckman octadecylsilane (ODS) column (1×25 cm) using a thirty minute gradient of from 0-70% CH3 CN in triethylammonium phosphate buffer (pH 7.0). The starting materials and reaction products were completely resolved under these conditions. Absorbance of the HPLC effluent was monitored at 220 nm. Individual fractions were collected and the amount of peptide degradation products was quantitated by counting in a liquid scintillation counter. Samples containing individual inhibitors were incubated without HUK and solvent blanks were also chromatographed and analyzed in the same way.
For test purposes, in these HUA cleavage studies, individual peptide sequences were synthesized, purified, and characterized as previously described herein. For these cleavage studies, doubly labelled peptides were prepared using [^3 H]-valine and […] respectively. In addition, 6.0N HCL-dioxane was used for removal of tert-butoxycarbonyl protecting groups and 90% hydrogen fluoride/10% anisole (volume/volume) for global deprotection on completion of the synthesis. After extraction and gel filtration on Sephadex G-15, final purification was completed by isocratic elution from a synchrom RP-P column (2.1×25 cm) with CH3 CN--H2 O (8 ml/min). The resultant peptides were deemed to be homogeneous by amino acid analysis; high performance liquid chromatography; thin layer chromatography; and A230 /A260 ratio analysis. […]
Turning to `CC(=O)N1CCC[C@H]1C(=O)N[C@@H](Cc1ccccc1)C(=O)N[C@@H](CCCNC(=N)N)C(=O)N[C@@H](CO)C(=O)N[C@H](C(=O)N[C@@H](CCC(N)=O)C(N)=O)C(C)C` [KKI-5, Ac--Pro--Phe--Arg--Ser--Val--Gln--NH2, reference compound] (Ac-PFRSVQ-NH2), the “RELATIVE SPECIFICITY” value amounted to 3.2.
Still for that read-out and setting: the same measure for `CC(=O)N[C@@H](Cc1ccccc1)C(=O)N[C@@H](CCCNC(=N)N)C(=O)N[C@@H](CO)C(=O)N[C@H](C(=O)N[C@@H](CCC(N)=O)C(N)=O)C(C)C` [KKI-4, Ac--Phe--Arg--Ser--Val--Gln--NH2, reference compound] (Ac-FRSVQ-NH2): 4.2; for `CC(=O)N[C@@H](CO)C(=O)N1CCC[C@H]1C(=O)N[C@@H](Cc1ccccc1)C(=O)N[C@@H](CCCNC(=N)N)C(=O)N[C@@H](CO)C(=O)N[C@H](C(=O)N[C@@H](CCC(N)=O)C(N)=O)C(C)C` [KKI-6, Ac--Ser--Pro--Phe--Arg--Ser--Val--Gln--NH2, reference compound] (Ac-SPFRSVQ-NH2): 45.4.
